Measured values: ChEMBL document CHEMBL1629443 (J Med Chem, 2010)
Calls of active or inactive are those of the source. The calls are words filed in the database; no cut-off is given here.

What was measured:
[1] = biological target: T1, Epidermal growth factor receptor (Homo sapiens, UniProt P00533); assay: Inhibition of EGFR by flash plate based radioactive enzyme assay
[2] = Inhibition of HDAC assessed as histone H3K'9+14 acetylation levels by cell based histone H3 hyperacetylation assay
Insulin receptor = Insulin receptor (Homo sapiens, UniProt P06213); assay: Inhibition of INSR by flash plate based radioactive enzyme assay
[3] = biological target: Platelet-derived growth factor receptor beta (Homo sapiens, UniProt P09619); assay: Inhibition of PDGFRbeta by flash plate based radioactive enzyme assay
[4] = biological target: T2, Protein deacetylase HDAC6 (Homo sapiens, UniProt Q9UBN7); assay: (§1) Inhibition of human recombinant HDAC6 expressed in HEK293 cells; type: cell-based
T2 sequence (Q9UBN7 whole entry): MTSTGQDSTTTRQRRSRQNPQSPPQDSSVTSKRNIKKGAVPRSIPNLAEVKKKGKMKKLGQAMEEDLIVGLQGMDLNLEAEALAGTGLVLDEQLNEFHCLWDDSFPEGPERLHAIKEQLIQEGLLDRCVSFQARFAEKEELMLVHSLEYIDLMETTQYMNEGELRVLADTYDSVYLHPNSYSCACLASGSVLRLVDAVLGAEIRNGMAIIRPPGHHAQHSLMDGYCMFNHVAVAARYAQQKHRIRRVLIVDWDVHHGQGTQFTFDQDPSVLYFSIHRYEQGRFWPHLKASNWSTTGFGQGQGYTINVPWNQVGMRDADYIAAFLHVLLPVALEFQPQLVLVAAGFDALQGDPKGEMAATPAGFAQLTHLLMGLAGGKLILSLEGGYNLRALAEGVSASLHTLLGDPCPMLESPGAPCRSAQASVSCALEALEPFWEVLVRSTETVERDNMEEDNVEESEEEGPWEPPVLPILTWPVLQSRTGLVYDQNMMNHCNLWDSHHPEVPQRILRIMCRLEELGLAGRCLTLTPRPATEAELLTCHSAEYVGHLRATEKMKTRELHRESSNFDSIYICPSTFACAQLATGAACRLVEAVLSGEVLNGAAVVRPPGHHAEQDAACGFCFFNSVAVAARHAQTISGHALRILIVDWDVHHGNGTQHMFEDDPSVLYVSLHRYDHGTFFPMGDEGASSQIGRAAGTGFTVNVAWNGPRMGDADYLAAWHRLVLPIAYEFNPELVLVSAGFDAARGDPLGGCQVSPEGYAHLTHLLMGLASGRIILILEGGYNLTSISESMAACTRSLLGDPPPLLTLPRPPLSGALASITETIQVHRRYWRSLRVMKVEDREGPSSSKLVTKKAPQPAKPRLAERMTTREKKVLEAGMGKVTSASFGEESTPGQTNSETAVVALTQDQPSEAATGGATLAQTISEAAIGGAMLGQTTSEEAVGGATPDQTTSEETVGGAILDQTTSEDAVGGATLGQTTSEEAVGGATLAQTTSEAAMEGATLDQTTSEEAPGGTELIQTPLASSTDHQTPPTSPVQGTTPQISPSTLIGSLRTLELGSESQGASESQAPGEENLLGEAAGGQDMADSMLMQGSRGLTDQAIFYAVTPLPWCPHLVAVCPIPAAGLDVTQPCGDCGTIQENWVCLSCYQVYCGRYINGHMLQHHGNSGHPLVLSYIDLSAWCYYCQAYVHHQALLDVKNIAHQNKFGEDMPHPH

HeLa = assay: Cytotoxicity against human HeLa cells overexpressing HDAC by resazurin dye reduction assay
SK-OV-3 = assay: Cytotoxicity against human SKOV3 cells overexpressing HER2 by resazurin dye reduction assay; type: functional, cell-based
A-431 = assay: Cytotoxicity against human A431 cells overexpressing EGFR by resazurin dye reduction assay
SK-BR-3 = assay: Cytotoxicity against human SKBR3 cells overexpressing HER2 by resazurin dye reduction assay
[5] = biological target: Serine/threonine-protein kinase PLK1 (Homo sapiens, UniProt P53350); assay: Inhibition of PLK1 by flash plate based radioactive enzyme assay
[6] = biological target: Receptor tyrosine-protein kinase erbB-2 (Homo sapiens, UniProt P04626); assay: Inhibition of HER2 by flash plate based radioactive enzyme assay
Histone deacetylase = assay: Inhibition of HDAC in human HeLa cell nuclear extracts; type: cell-based
Histone deacetylase 8 = biological target: T3, Histone deacetylase 8 (Homo sapiens, UniProt Q9BY41); assay: Inhibition of Flag tagged human recombinant HDAC8 expressed in Sf21 cells
T3 sequence (Q9BY41 whole entry): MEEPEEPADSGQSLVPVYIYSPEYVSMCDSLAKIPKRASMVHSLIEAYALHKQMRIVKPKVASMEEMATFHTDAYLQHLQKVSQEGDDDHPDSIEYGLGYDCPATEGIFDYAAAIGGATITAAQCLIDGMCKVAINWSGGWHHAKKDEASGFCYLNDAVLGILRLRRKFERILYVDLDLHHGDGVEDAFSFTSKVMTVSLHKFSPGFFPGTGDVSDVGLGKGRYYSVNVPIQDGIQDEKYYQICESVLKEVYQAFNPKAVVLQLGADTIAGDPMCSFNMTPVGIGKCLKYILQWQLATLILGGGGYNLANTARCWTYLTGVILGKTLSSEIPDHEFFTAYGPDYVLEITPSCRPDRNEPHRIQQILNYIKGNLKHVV

A549 = assay: Cytotoxicity against human A549 cells overexpressing HDAC by resazurin dye reduction assay
[7] = biological target: Tyrosine-protein kinase ABL1 (Homo sapiens, UniProt P00519); assay: Inhibition of ABL1 by flash plate based radioactive enzyme assay
[8] = biological target: T1, Epidermal growth factor receptor; assay: Inhibition of EGF-induced EGFR phosphorylation in human CAL27 cells overexpressing EGFR after 16 hrs by Western blot; type: cell-based, CAL-27
Histone deacetylase 1 = Histone deacetylase 1 (Homo sapiens, UniProt Q13547); assay: Inhibition of human recombinant HDAC1 expressed in HEK293 cells; type: cell-based
Histone deacetylase 3 = Histone deacetylase 3 (Homo sapiens, UniProt O15379); assay: Inhibition of Flag tagged human recombinant HDAC3 expressed in Sf21 cells coexpressing SMRT DAD domain
[9] = Inhibition of PKA by flash plate based radioactive enzyme assay
[10] = biological target: Cyclin-dependent kinase 2 (Homo sapiens, UniProt P24941); assay: Inhibition of CDK2 by flash plate based radioactive enzyme assay
CAL-27 = assay: Cytotoxicity against human CAL27 cells overexpressing EGFR by resazurin dye reduction assay
[11] = biological target: Histone deacetylase (Homo sapiens) (UniProt Q13547+O15379+Q9UBN7+Q92769+Q9UQL6+Q8WUI4+Q9BY41+Q96DB2+P56524+Q9UKV0+Q969S8); settings: CAL-27, 1 uM
Description: Inhibition of HADC in human CAL27 cells overexpressing EGFR assessed as effect on histone H2 acetylation at 1 uM after 16 hrs by Western blot

[12] = biological target: Protein deacetylase HDAC6 (Homo sapiens) (UniProt Q9UBN7); assay: as §1; type: cell-based

T1 sequence (P00533 whole entry): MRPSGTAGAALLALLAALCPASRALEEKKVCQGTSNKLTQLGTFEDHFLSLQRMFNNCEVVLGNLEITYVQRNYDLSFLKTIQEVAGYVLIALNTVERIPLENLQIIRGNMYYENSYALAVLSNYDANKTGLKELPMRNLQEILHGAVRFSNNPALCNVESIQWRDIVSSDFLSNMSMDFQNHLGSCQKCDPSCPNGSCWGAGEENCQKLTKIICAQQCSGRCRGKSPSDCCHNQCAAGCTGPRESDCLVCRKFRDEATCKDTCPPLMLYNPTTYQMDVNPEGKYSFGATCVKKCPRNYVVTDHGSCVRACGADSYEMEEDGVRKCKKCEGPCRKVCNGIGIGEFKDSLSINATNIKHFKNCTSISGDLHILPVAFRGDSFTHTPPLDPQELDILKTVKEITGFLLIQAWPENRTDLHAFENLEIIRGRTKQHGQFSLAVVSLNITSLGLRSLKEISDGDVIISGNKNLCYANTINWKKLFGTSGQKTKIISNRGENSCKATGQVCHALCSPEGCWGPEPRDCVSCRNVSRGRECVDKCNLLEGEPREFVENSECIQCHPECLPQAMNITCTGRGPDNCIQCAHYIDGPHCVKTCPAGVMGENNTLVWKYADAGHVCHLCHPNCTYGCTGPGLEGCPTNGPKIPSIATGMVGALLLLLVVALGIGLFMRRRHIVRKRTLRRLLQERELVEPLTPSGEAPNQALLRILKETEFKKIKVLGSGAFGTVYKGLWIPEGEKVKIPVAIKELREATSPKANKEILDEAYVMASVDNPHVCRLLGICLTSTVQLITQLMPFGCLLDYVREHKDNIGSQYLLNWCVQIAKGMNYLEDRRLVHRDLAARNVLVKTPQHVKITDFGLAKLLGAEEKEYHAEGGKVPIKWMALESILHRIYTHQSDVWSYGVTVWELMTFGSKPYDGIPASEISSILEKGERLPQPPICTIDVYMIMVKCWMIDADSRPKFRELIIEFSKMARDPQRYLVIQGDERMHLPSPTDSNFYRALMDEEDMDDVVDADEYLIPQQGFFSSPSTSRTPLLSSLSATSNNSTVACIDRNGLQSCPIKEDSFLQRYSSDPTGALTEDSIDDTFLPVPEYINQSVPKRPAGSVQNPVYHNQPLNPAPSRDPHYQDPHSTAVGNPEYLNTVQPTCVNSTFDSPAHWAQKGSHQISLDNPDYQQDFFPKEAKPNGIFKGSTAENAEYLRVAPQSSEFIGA
Tyrosine-protein kinase ABL1, sequence (P00519 whole entry): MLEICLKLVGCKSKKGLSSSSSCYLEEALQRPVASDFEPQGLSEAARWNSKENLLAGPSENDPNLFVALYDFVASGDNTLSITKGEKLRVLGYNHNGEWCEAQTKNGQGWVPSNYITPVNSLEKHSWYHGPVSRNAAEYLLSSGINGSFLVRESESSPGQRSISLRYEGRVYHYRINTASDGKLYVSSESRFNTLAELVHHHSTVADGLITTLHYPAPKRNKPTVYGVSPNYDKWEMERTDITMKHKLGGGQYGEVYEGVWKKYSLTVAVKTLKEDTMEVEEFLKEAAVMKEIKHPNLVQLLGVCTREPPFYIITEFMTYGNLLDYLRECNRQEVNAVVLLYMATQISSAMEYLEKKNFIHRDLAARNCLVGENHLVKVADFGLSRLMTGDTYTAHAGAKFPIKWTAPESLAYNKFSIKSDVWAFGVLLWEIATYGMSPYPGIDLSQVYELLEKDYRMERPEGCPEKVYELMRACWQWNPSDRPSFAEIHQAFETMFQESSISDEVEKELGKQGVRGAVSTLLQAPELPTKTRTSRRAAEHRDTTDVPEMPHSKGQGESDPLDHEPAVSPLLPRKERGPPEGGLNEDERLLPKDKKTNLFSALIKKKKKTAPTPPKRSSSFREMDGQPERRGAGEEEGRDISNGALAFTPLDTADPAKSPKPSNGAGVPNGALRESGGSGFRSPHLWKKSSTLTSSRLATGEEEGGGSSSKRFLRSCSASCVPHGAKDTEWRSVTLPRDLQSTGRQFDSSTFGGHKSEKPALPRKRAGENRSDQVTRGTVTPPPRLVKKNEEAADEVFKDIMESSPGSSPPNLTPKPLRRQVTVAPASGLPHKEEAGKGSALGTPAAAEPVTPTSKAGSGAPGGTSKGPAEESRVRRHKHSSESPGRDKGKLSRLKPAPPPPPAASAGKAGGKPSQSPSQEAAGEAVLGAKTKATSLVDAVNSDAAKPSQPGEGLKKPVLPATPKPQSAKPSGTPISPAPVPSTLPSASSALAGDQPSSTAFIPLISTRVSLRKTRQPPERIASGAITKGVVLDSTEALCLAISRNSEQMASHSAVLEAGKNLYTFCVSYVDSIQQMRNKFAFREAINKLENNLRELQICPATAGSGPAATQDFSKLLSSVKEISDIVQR
Insulin receptor, sequence (P06213 28-758 limits assumed): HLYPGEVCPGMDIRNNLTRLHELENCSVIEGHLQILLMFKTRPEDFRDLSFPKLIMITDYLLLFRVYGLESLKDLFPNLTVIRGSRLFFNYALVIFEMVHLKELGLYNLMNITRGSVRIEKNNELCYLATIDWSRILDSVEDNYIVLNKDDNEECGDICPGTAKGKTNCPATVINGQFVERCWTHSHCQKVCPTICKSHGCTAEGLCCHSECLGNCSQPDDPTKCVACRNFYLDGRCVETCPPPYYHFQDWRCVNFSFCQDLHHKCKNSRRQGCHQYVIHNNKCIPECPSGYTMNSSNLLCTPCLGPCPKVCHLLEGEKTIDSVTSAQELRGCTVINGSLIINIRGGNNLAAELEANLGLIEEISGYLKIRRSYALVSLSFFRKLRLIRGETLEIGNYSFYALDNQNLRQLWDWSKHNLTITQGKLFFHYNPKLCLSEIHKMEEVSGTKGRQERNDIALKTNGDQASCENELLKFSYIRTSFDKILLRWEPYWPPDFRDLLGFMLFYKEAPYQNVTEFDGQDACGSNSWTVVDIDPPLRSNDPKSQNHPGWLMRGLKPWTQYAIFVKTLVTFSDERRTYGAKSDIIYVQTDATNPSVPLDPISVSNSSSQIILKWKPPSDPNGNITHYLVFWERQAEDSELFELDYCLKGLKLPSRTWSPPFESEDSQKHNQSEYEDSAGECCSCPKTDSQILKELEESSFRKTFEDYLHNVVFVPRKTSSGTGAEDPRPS
Insulin receptor, sequence (P06213 763-1382 limits assumed): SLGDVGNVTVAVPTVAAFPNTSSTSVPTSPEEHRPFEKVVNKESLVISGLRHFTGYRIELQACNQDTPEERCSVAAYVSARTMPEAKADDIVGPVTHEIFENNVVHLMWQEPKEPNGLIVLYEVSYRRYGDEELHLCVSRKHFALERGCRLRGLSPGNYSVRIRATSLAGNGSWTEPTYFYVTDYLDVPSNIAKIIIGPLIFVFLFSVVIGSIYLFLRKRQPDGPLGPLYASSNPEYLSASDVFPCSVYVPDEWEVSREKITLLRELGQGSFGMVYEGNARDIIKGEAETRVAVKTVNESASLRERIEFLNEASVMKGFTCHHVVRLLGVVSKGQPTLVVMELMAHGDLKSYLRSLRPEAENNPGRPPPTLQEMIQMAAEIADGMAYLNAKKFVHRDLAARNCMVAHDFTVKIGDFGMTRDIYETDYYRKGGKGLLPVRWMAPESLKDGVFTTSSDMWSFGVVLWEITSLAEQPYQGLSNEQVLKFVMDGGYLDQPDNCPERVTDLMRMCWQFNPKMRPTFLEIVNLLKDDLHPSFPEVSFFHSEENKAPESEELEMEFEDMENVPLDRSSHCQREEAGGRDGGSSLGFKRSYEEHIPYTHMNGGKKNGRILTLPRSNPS
Serine/threonine-protein kinase PLK1, sequence (P53350 whole entry): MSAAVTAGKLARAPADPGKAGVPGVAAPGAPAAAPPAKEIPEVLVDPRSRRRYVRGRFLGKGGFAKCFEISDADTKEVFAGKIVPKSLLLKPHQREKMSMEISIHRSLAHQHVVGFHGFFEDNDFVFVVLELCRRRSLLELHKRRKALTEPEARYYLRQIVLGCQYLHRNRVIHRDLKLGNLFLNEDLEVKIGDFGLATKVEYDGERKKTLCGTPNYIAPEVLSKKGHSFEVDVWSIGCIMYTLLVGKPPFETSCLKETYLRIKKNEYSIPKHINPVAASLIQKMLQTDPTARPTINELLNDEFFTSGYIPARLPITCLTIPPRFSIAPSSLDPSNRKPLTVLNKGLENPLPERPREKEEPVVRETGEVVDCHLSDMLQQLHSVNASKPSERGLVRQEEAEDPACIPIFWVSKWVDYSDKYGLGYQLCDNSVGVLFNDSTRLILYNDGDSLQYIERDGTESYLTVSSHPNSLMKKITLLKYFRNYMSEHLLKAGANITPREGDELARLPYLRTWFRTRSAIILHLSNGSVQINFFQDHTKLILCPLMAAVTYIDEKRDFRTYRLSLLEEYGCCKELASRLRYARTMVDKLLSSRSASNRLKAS
Histone deacetylase 1, sequence (Q13547 whole entry, the tested form may be a part): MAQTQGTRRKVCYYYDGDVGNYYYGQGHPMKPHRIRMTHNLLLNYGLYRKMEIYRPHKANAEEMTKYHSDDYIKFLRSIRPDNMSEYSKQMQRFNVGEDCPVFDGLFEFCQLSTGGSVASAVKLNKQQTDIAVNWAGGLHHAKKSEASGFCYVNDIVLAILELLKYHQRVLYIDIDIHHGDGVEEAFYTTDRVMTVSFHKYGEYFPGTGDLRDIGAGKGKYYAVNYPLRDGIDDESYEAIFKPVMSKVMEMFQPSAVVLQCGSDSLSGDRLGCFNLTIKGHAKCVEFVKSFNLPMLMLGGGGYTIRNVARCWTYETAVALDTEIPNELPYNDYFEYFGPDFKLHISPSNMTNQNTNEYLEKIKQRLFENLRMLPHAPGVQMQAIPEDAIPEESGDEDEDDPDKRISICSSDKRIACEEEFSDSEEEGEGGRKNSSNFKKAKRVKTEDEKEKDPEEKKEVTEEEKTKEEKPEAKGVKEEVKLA

Row | IC50 [1] [µM] | EC50 [2] [µM] | IC50 (Insulin receptor) [µM] | IC50 [5] [µM] | IC50 [6] [µM] | IC50 [7] [µM] | IC50 [9] [µM] | IC50 [10] [µM] | Compound | IC50 (SK-OV-3) [µM] | IC50 (A-431) [µM] | IC50 (A549) [µM] | IC50 (CAL-27) [µM] | also measured
1 | 0.018 | 4.7 | 3.6 | 6.8 | 0.011 | 5.3 | > 100 | 0.92 | O=C(/C=C/c1cccc(-c2ccc3ncnc(Nc4ccc(OCc5cccc(F)c5)c(Cl)c4)c3c2)c1)NO | 1 | 0.72 | 1.2 | 0.59 | IC50 [3]: 2.5 µM; IC50 [4]: 0.086 µM; IC50 (HeLa): 0.97 µM; IC50 (SK-BR-3): 0.35 µM; IC50 (Histone deacetylase): 0.047 µM; IC50 (Histone deacetylase 8): 0.63 µM; IC50 [8]: 0.5 µM; IC50 (Histone deacetylase 1): 0.035 µM; IC50 (Histone deacetylase 3): 0.066 µM; inhibition [11]: Active
2 | 0.0048 | > 100 | 1.9 | 2.7 | 0.0035 | 2.7 | 35 | 0.44 | O=C(/C=C/c1ccc(-c2ccc3ncnc(Nc4ccc(OCc5cccc(F)c5)c(Cl)c4)c3c2)s1)NO | 4 | 0.73 | 2.6 | 0.66 | Emax [12]: 70%
